Data reported in publication PMC12935787, “Clinical pharmacokinetics and pharmacometabolomics of Andrographis paniculata capsules: Bridging drug disposition and metabolic response to precision medicine” (Naunyn-Schmiedeberg's Archives of Pharmacology, 2025).
Where two headings read alike, the source gives them in different places.

Experiment: Clinical pharmacokinetics, plasma LC-MS/MS after single oral dose of AP capsules
Type: in vivo, human (healthy volunteers)
Conditions: human, plasma, oral, 2000 mg, 2000 mg AP capsules, read-out: Plasma concentration; for concentration at 0.5 h: 0.50 h; for concentration at 1.5 h: 1.50 h; for concentration at 2.5 h: 2.50 h; for concentration at 3.5 h: 3.50 h
Method: The protocol was published (Tee et al. [2022]).
Seven calibrators ranging from 1, 2, 5,10, 20, 50, and 100 ng mL^−1 were prepared. Frozen plasma was thawed, vortexed-mixes, and processed via protein precipitation: 50 µL plasma plus 100 µL 0.01% ammonia in methanol were vortexed (20 s), centrifuged (14800 rpm, 5 min) and […] supernatant was transferred to 2 mL vials with inserts. LC–MS/MS injection volume: 10 µL. The separation used a Phenomenex Gemini-NX C18 column (150 × 2.1 mm, 5 μm) with 0.01% ammonia (A) and acetonitrile/methanol (1:1, B) as mobile phases (0.30 mL min^-1). The gradient program: 40% B (0 min), linear increase to 95% B (3 min), hold to 5 min, sharp decrease to 10% B (5.01 min), hold to 7 min, return to 40% B (7.01 min), and re-equilibration to 10 min. Mass detection employed an LCMS-8060NX triple quadrupole with heated ESI in negative mode, monitoring specific MRM transitions: andrographolide (349.3 → 331.2/287.1), 14-deoxyandrographolide (331.2 → 108.0/301.1), and neoandrographolide (479.1 → 317.4/161.1).
Pharmacokinetic parameters were determined from plasma samples (5 subjects, 15 time points) analyzed via LC–MS/MS (Shimadzu 8060NX). […] Specific MRM transitions for andrographolide, 14-deoxyandrographolide, and neoandrographolide in plasma samples of subjects are illustrated in Figure S3. […] The dose-dependent concentration–time curves, pharmacokinetics profiles (Fig. 2a, b and c) and comprehensive individual PK data (Table S4) provide a foundation for developing personalized AP dosing regimens, supporting its precision medicine potential.

concentration at 0 h (S1): 0 ng/mL
concentration at 0.5 h (S1): 3.76 ng/mL
concentration at 1 h (S1): 2.41 ng/mL
concentration at 1.5 h (S1): 6.36 ng/mL
concentration at 2 h (S1): 5.31 ng/mL
concentration at 2.5 h (S1): 2.17 ng/mL
concentration at 3 h (S1): 3.86 ng/mL
concentration at 3.5 h (S1): 2.81 ng/mL
concentration at 4 h (S1): 0 ng/mL
concentration at 5 h (S1): 0 ng/mL
concentration at 6 h (S1): 0 ng/mL
concentration at 8 h (S1): 0 ng/mL
concentration at 10 h (S1): 0 ng/mL
concentration at 12 h (S1): 0 ng/mL
concentration at 24 h (S1): 0 ng/mL
concentration at 0 h (S2): 0 ng/mL
concentration at 0.5 h (S2): 0 ng/mL
concentration at 1 h (S2): 3.98 ng/mL
concentration at 1.5 h (S2): 5.56 ng/mL
concentration at 2 h (S2): 5.07 ng/mL
concentration at 2.5 h (S2): 3.13 ng/mL
concentration at 3 h (S2): 4.68 ng/mL
concentration at 3.5 h (S2): 0 ng/mL
concentration at 4 h (S2): 0 ng/mL
concentration at 5 h (S2): 0 ng/mL
concentration at 6 h (S2): 0 ng/mL
concentration at 8 h (S2): 0 ng/mL
concentration at 10 h (S2): 0 ng/mL
concentration at 12 h (S2): 0 ng/mL
concentration at 24 h (S2): 0 ng/mL
concentration at 0 h (S3): 0 ng/mL
concentration at 0.5 h (S3): 39.4 ng/mL
concentration at 1 h (S3): 13.8 ng/mL
concentration at 1.5 h (S3): 14.2 ng/mL
concentration at 2 h (S3): 4.19 ng/mL
concentration at 2.5 h (S3): 3.47 ng/mL
concentration at 3 h (S3): 0 ng/mL
concentration at 3.5 h (S3): 0 ng/mL
concentration at 4 h (S3): 0 ng/mL
concentration at 5 h (S3): 0 ng/mL
concentration at 6 h (S3): 0 ng/mL
concentration at 8 h (S3): 0 ng/mL
concentration at 10 h (S3): 0 ng/mL
concentration at 12 h (S3): 0 ng/mL
concentration at 24 h (S3): 0 ng/mL
concentration at 0 h (S4): 0 ng/mL
concentration at 0.5 h (S4): 0 ng/mL
concentration at 1 h (S4): 18.3 ng/mL
concentration at 1.5 h (S4): 22.1 ng/mL
concentration at 2 h (S4): 12.7 ng/mL
concentration at 2.5 h (S4): 5.06 ng/mL
concentration at 3 h (S4): 4.2 ng/mL
concentration at 3.5 h (S4): 2.09 ng/mL
concentration at 4 h (S4): 0 ng/mL
concentration at 5 h (S4): 0 ng/mL
concentration at 6 h (S4): 0 ng/mL
concentration at 8 h (S4): 0 ng/mL
Structure (SMILES): C=C1CC[C@@H]2[C@](C)(CO)[C@H](O)CC[C@@]2(C)[C@@H]1C/C=C1/C(=O)OC[C@H]1O [andrographolide]
